Results from ChEMBL document CHEMBL4616613, “Phosphine boranes as less hydrophobic building blocks than alkanes and silanes: Structure-property relationship and estrogen-receptor-modulating potency of 4-phosphinophenol derivatives” (Bioorg Med Chem, 2020).

Key:
[1] = molecular target: T1, Estrogen receptor (Homo sapiens, UniProt P03372); conditions: hek293
T1 sequence (P03372 whole entry): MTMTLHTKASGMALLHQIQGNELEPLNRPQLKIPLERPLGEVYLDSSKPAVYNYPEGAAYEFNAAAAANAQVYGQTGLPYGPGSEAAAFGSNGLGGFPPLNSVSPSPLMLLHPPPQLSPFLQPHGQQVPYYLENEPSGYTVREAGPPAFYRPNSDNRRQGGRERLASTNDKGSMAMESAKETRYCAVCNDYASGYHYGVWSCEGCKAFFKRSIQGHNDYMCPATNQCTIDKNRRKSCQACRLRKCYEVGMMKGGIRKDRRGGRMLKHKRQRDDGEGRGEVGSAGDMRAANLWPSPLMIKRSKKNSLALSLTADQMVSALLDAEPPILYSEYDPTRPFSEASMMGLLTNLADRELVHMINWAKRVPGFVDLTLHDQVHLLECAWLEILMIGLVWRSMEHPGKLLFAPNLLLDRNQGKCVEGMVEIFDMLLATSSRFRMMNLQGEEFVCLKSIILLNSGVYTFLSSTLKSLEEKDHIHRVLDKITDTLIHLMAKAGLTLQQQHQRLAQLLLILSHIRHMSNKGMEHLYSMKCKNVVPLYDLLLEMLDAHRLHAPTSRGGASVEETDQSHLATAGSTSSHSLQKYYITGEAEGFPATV
Description: (§1) Antagonist activity at human Gal4-fused ERalpha expressed in HEK293 cells assessed as inhibition of E2-induced transcriptional activation after 24 hrs by luciferase/beta-galactosidase reporter gene assay

[2] = physchem
Description: Acid dissociation constant, pKa of the compound by UV spectral absorption analysis

[3] = molecular target: T2, Estrogen receptor beta (Homo sapiens, UniProt Q92731); assay: Agonist activity at human Gal4-fused ERbeta expressed in HEK293 cells assessed as transcriptional activation at 30 uM after 24 hrs by luciferase/beta-galactosidase reporter gene assay relative to estradiol; assay type: cell-based
T2 sequence (Q92731 whole entry, the tested form may be a part): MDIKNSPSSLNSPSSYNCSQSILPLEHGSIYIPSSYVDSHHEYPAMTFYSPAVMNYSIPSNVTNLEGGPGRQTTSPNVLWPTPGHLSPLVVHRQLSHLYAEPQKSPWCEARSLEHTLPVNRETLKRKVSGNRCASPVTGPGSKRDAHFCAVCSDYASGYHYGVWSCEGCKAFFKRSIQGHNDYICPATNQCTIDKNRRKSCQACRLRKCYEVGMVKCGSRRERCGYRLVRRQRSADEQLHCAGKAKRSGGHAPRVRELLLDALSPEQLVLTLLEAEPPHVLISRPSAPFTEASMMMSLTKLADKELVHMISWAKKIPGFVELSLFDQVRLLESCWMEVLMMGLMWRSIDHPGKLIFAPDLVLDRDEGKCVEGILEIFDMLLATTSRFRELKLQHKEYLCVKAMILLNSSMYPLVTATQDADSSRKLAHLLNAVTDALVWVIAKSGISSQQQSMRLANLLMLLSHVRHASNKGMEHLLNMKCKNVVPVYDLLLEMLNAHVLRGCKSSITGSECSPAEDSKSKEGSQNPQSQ

[4] = molecular target: T2, Estrogen receptor beta; conditions: hek293
Description: (§2) Antagonist activity at human Gal4-fused ERbeta expressed in HEK293 cells assessed as inhibition of E2-induced transcriptional activation after 24 hrs by luciferase/beta-galactosidase reporter gene assay

[5] = molecular target: T1, Estrogen receptor
Description: (§3) Agonist activity at human Gal4-fused ERalpha expressed in HEK293 cells assessed as transcriptional activation after 24 hrs by luciferase/beta-galactosidase reporter gene assay

[6] = physchem; conditions: 1-octanol/water
Description: 1-Octanol-water partition coefficient, log P of the compound by HPLC analysis

[7] = molecular target: T1, Estrogen receptor; conditions: hek293; remark: listed apart in the source
Description: as §3

[8] = molecular target: T2, Estrogen receptor beta
Description: as §2

[9] = molecular target: T1, Estrogen receptor; remark: listed apart in the source
Description: as §1

[10] = molecular target: T3, Estrogen receptor (Homo sapiens) (UniProt P03372); assay: Agonist activity at human Gal4-fused ERalpha expressed in HEK293 cells assessed as transcriptional activation at 30 uM after 24 hrs by luciferase/beta-galactosidase reporter gene assay relative to estradiol; assay type: cell-based
T3 sequence (whole entry): T1 sequence (P03372 whole entry)

[11] = molecular target: T2, Estrogen receptor beta; assay: Antagonist activity at human Gal4-fused ERbeta expressed in HEK293 cells assessed as inhibition of E2-induced transcriptional activation at 30 uM after 24 hrs by luciferase/beta-galactosidase reporter gene assay relative to control; assay type: cell-based

**Q.** Which IC50 [1] does the source give for CP(=O)(c1ccccc1)c1ccc(O)cc1 (stereo unspecified) here?
**A.** Not Active

**Q.** And the pKa [2]?
**A.** 8.63

**Q.** What about the Activity [3] of the same molecule?
**A.** 36%

**Q.** And the IC50 [4]?
**A.** Not Active

**Q.** And the EC50 [5]?
**A.** 19 µM

**Q.** What about the logP [6] of the same molecule?
**A.** 1.88

**Q.** Which Activity [3] does the source give for B.CP(c1ccccc1)c1ccc(O)cc1 (stereo unspecified) [listing 1 of 2 here] here?
**A.** 16%

**Q.** Which EC50 [7] does the source give for Oc1ccc(P(=S)(c2ccccc2)c2ccccc2)cc1 here?
**A.** Not Active

**Q.** And the pKa [2]?
**A.** 8.6

**Q.** And the IC50 [8]?
**A.** 13 µM

**Q.** What about the IC50 [9] of the same molecule?
**A.** 20 µM

**Q.** And the logP [6]?
**A.** 4.08

**Q.** Which EC50 [7] does the source give for CP(c1ccccc1)c1ccc(O)cc1 (stereo unspecified) here?
**A.** Not Active

**Q.** What about the IC50 [1] of the same molecule?
**A.** Not Active

**Q.** And the pKa [2]?
**A.** 9.49

**Q.** And the IC50 [4]?
**A.** Not Active

**Q.** And the logP [6]?
**A.** 3.67

**Q.** Which pKa [2] does the source give for C[Si](C)(c1ccccc1)c1ccc(O)cc1 here?
**A.** 10.2

**Q.** What about the IC50 [8] of the same molecule?
**A.** 5 µM

**Q.** And the IC50 [9]?
**A.** 13 µM

**Q.** And the Activity [3]?
**A.** 20%

**Q.** And the EC50 [5]?
**A.** > 30 µM

**Q.** And the logP [6]?
**A.** 4.8

**Q.** Which IC50 [1] does the source give for CP(=S)(c1ccccc1)c1ccc(O)cc1 (stereo unspecified) here?
**A.** Not Active

**Q.** And the pKa [2]?
**A.** 8.65

**Q.** What about the Activity [3] of the same molecule?
**A.** 24%

**Q.** And the Activity [10]?
**A.** 24%

**Q.** What about the IC50 [4] of the same molecule?
**A.** Not Active

**Q.** And the logP [6]?
**A.** 2.69

**Q.** What does the source list for CP(=[Se])(c1ccccc1)c1ccc(O)cc1 (stereo unspecified)?
**A.** EC50 [7]: Not Active; IC50 [1]: Not Active; pKa [2]: 8.64; inhibition [11]: 30%; Activity [3]: 24%; logP [6]: 3.27

**Q.** With B.CP(c1ccccc1)c1ccc(O)cc1 (stereo unspecified) [listing 2 of 2 here] as the molecule, how does the EC50 [7] read?
**A.** Not Active

**Q.** And the pKa [2]?
**A.** 8.83

**Q.** And the IC50 [8]?
**A.** 2.5 µM

**Q.** What about the IC50 [9] of the same molecule?
**A.** 9.8 µM

**Q.** What about the logP [6] of the same molecule?
**A.** 3.38

**Q.** What does the source list for CC(C)(c1ccccc1)c1ccc(O)cc1?
**A.** pKa [2]: 10.6; IC50 [8]: 13 µM; IC50 [9]: 24 µM; Activity [3]: 38%; EC50 [5]: 4.4 µM; logP [6]: 4.2

**Q.** Which EC50 [7] does the source give for B.Oc1ccc(P(c2ccccc2)c2ccccc2)cc1 here?
**A.** Not Active

**Q.** What about the pKa [2] of the same molecule?
**A.** 8.81

**Q.** What about the IC50 [8] of the same molecule?
**A.** 2 µM

**Q.** And the IC50 [9]?
**A.** 12 µM

**Q.** What about the logP [6] of the same molecule?
**A.** 4.96

**Q.** Which results are given for O=P(c1ccccc1)(c1ccccc1)c1ccc(O)cc1?
**A.** EC50 [7]: Not Active; IC50 [1]: Not Active; pKa [2]: 8.51; IC50 [4]: Not Active; logP [6]: 3.22

**Q.** Which EC50 [7] does the source give for Oc1ccc(P(c2ccccc2)c2ccccc2)cc1 here?
**A.** Not Active

**Q.** And the IC50 [1]?
**A.** Not Active

**Q.** What about the pKa [2] of the same molecule?
**A.** 9.48

**Q.** And the IC50 [4]?
**A.** Not Active

**Q.** And the logP [6]?
**A.** 5.06
